Legend:
Cytochrome P450 2C19 = Cytochrome P450 2C19 (Homo sapiens, UniProt P33261); experiment: Inhibition of CYP2C19 in human liver microsomes using S-mephenytoin as substrate preincubated for 20 mins with substrate prior to initiation of reaction with NADPH by HPLC analysis; format: ADME
CYP2B6 = CYP2B6 (Homo sapiens, UniProt P20813); experiment: Inhibition of CYP2B6 in human liver microsomes using bupropion as substrate at 100 uM preincubated for 20 mins with substrate prior to initiation of reaction with NADPH by HPLC analysis; format: ADME; settings: probe bupropion
[1] = target: T1, UDP-glucuronosyltransferase 1A1 (Homo sapiens, UniProt P22309); experiment: Inhibition of human recombinant UGT1A1 expressed in supersomes assessed as scopoletin glucuronidation by fluorescence analysis; format: ADME
T1 sequence (P22309 whole entry): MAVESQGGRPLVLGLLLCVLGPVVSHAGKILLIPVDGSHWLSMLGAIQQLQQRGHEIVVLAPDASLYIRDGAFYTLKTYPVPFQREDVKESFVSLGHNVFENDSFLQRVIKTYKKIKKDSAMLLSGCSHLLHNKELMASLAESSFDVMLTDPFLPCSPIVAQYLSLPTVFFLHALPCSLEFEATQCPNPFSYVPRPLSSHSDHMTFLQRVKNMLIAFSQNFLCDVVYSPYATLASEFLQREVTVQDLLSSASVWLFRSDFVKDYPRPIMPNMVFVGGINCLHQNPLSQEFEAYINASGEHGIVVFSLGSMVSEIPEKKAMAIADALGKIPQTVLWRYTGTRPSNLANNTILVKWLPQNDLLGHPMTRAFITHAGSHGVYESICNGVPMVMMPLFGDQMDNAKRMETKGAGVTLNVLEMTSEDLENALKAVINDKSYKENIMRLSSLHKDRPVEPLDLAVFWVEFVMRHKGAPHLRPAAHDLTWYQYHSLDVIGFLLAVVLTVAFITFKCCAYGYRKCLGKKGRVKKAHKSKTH

Cytochrome P450 1A2 = target: T2, Cytochrome P450 1A2 (Homo sapiens, UniProt P05177); experiment: Metabolism-dependent inhibition of CYP1A2 in human liver microsomes using phenacetin as substrate preincubated for 20 mins with NADPH prior to initiation of reaction with probe substrate by HPLC analysis; format: ADME
T2 sequence (P05177 whole entry): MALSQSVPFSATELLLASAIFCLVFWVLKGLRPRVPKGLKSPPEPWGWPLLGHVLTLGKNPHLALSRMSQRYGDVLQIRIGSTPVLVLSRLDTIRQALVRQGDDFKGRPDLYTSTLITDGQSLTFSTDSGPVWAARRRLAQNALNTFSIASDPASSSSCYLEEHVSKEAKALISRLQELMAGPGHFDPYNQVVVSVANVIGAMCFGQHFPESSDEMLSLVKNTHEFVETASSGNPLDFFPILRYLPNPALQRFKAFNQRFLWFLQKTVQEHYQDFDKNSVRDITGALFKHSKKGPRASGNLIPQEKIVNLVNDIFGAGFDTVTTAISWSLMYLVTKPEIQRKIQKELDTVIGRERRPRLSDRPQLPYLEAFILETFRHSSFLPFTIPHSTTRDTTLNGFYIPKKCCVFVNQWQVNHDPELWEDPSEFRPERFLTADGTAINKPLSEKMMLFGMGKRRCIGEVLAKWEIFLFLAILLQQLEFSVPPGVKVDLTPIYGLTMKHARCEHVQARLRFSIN

[2] = In vitro passive membrane permeability across dog MDCK2 cells at 3 uM using fasted state-simulated intestinal fluid buffer at pH 5.5 on donor side and 1% human serum albumin at pH 7.4 on receiver side by liquid scintillation counting analysis; format: ADME, cell-based, Canis lupus familiaris, MDCK-II; settings: MDCK, read-out: permeability
[3] = target: ATP-dependent translocase ABCB1 (Homo sapiens, UniProt P08183); experiment: Inhibition of MDR1 (unknown origin) expressed in MDCK2 cells assessed as basolateral to apical transport of [3H]digoxin after 90 mins by liquid scintillation counting analysis; format: ADME, cell-based, MDCK-II
[4] = target: T1, UDP-glucuronosyltransferase 1A1; experiment: (§1) Drug metabolism assessed as intrinsic clearance for human recombinant UGT1A1-mediated DTG glucuronide M2 ((2S,3S,4S,5R,6S)-6-((4R,12aS)-9-(2,4-difluorobenzylcarbamoyl)-4-methyl-6,8-dioxo-3,4,6,8,12,12a-hexahydro-2H-[1,3]oxazino[3,2-d]pyrido[1,2-a]pyrazin-7-yloxy)-3,4,5-trihydroxytetrahydro-2H-pyran-2-carboxylic acid) formation after 120 mins measured per mg of protein by radio-HPLC analysis; format: ADME; settings: recombinant enzyme
Cytochrome P450 3A4 = Cytochrome P450 3A4 (Homo sapiens, UniProt P08684); experiment: Drug metabolism in supersomes expressing human recombinant CYP3A4 assessed as intrinsic clearance for NADPH-fortified enzyme-mediated metabolite M3 ((4R,12aS)-N-((3,5-difluorophenyl)(hydroxy)methyl)-7-hydroxy-4-methyl-6,8-dioxo-3,4,6,8,12,12a-hexahydro-2H-[1,3]oxazino[3,2-d]pyrido[1,2-a]pyrazine-9-carboxamide) formation at 5 uM after 120 mins by radio-HPLC analysis; format: ADME
Liver microsome [5] = experiment: Drug metabolism in NADPH-fortified human liver microsomes assessed as metabolite M3 ((4R,12aS)-N-((3,5-difluorophenyl)(hydroxy)methyl)-7-hydroxy-4-methyl-6,8-dioxo-3,4,6,8,12,12a-hexahydro-2H-[1,3]oxazino[3,2-d]pyrido[1,2-a]pyrazine-9-carboxamide) formation at 5 uM after 120 mins treated 5 mins after selective CYP3A4 inhibitor azamulin addition by radio-HPLC analysis; format: ADME
Cytochrome P450 2C8 = target: T3, Cytochrome P450 2C8 (Homo sapiens, UniProt P10632); experiment: Drug metabolism in supersomes expressing human recombinant CYP2C8 assessed as NADPH-fortified enzyme-mediated metabolite formation at 5 uM after 120 mins by radio HPLC analysis; format: ADME; settings: 2 h
T3 sequence (P10632 whole entry): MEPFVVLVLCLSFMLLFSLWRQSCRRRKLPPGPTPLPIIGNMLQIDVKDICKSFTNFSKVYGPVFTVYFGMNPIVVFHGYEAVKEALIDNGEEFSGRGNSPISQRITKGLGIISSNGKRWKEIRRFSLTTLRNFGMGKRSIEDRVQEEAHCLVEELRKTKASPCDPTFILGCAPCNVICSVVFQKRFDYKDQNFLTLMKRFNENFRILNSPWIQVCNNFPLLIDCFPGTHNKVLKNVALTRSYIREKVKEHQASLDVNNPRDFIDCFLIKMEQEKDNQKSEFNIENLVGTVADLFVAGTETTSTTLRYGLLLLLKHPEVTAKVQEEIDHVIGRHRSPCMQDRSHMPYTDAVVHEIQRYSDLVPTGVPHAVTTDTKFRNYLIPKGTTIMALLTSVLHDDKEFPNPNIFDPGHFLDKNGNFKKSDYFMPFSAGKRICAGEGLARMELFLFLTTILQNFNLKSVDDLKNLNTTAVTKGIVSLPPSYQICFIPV

Liver microsome [6] = experiment: Drug metabolism in UDPGA-fortified human liver microsomes assessed as DTG glucuronide metabolite ((2S,3S,4S,5R,6S)-6-((4R,12aS)-9-(2,4-difluorobenzylcarbamoyl)-4-methyl-6,8-dioxo-3,4,6,8,12,12a-hexahydro-2H-[1,3]oxazino[3,2-d]pyrido[1,2-a]pyrazin-7-yloxy)-3,4,5-trihydroxytetrahydro-2H-pyran-2-carboxylic acid) formation at 10 uM after 120 mins by radio-HPLC analysis in presence of UGT1A1 inhibitor atazanavir; format: ADME
[7] = target: T1, UDP-glucuronosyltransferase 1A1; experiment: as §1, with “metabolism in UDPGA-fortified human liver microsomes” for “metabolism”, “for” for “for human recombinant”; format: ADME
[8] = target: UDP-glucuronosyltransferase 2B7 (Homo sapiens, UniProt P16662); experiment: Drug metabolism assessed as UDPGA-fortified human recombinant UGT2B7-mediated DTG glucuronide metabolite ((2S,3S,4S,5R,6S)-6-((4R,12aS)-9-(2,4-difluorobenzylcarbamoyl)-4-methyl-6,8-dioxo-3,4,6,8,12,12a-hexahydro-2H-[1,3]oxazino[3,2-d]pyrido[1,2-a]pyrazin-7-yloxy)-3,4,5-trihydroxytetrahydro-2H-pyran-2-carboxylic acid) formation after 120 mins by radio-HPLC analysis; format: ADME; settings: recombinant enzyme
Chain of UDP-glucuronosyltransferase 2B7 (P16662 whole entry): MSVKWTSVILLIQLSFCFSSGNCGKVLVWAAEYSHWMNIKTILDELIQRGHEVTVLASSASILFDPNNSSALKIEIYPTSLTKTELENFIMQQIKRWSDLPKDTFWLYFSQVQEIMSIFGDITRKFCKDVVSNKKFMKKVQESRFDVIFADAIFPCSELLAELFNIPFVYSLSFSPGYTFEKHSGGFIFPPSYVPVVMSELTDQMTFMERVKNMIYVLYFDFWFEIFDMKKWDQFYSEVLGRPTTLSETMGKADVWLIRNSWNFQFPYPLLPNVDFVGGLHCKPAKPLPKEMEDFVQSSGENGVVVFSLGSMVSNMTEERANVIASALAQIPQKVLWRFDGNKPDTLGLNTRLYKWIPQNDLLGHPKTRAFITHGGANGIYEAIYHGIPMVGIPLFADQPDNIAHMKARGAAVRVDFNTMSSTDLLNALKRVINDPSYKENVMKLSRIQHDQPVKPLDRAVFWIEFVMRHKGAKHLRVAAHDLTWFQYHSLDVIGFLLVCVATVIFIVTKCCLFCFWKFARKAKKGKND

Chain of ATP-dependent translocase ABCB1 (P08183 whole entry): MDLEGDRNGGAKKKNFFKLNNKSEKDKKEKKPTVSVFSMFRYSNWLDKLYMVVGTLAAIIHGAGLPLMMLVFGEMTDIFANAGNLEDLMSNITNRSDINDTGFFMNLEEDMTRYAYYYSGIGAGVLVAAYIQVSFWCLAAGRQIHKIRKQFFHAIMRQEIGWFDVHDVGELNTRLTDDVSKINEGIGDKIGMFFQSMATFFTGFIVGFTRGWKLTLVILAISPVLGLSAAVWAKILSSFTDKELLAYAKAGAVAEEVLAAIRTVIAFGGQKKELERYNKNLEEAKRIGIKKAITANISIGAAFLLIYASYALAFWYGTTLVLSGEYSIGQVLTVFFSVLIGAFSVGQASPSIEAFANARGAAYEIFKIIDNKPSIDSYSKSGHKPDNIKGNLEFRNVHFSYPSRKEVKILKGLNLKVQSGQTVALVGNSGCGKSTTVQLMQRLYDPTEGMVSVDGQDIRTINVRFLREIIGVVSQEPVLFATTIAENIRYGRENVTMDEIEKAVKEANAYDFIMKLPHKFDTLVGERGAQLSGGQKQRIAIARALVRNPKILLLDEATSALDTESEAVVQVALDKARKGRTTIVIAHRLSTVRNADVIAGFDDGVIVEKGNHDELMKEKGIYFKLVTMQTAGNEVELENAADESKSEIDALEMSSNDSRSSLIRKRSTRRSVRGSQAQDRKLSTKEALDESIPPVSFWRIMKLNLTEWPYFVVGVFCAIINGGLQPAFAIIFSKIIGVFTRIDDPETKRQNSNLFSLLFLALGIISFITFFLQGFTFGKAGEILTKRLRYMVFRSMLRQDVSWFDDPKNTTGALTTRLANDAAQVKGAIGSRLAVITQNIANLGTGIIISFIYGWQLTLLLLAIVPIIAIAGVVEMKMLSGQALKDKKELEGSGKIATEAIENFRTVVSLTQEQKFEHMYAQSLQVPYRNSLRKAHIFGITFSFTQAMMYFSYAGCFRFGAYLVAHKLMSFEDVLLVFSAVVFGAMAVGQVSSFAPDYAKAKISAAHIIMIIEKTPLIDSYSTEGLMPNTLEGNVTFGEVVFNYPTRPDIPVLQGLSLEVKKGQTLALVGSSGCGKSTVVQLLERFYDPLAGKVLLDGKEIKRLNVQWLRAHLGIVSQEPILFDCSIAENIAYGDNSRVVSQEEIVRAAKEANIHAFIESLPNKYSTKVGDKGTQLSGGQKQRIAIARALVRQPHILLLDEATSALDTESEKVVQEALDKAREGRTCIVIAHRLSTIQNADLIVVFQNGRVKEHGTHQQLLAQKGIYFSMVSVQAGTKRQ
Chain of Cytochrome P450 2C19 (P33261 whole entry): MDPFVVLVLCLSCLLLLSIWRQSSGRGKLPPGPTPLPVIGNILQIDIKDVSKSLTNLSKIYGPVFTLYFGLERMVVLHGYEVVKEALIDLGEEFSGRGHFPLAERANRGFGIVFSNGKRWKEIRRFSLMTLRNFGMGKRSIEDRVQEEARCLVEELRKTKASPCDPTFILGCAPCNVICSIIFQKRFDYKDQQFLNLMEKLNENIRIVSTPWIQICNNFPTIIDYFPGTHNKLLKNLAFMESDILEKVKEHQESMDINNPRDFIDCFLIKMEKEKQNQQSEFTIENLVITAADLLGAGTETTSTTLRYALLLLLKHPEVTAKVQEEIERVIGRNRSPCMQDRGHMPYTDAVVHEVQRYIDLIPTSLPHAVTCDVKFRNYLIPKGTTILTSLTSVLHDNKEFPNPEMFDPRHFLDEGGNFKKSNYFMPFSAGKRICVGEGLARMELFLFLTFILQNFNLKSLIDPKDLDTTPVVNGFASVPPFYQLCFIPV
Chain of Cytochrome P450 3A4 (P08684 whole entry): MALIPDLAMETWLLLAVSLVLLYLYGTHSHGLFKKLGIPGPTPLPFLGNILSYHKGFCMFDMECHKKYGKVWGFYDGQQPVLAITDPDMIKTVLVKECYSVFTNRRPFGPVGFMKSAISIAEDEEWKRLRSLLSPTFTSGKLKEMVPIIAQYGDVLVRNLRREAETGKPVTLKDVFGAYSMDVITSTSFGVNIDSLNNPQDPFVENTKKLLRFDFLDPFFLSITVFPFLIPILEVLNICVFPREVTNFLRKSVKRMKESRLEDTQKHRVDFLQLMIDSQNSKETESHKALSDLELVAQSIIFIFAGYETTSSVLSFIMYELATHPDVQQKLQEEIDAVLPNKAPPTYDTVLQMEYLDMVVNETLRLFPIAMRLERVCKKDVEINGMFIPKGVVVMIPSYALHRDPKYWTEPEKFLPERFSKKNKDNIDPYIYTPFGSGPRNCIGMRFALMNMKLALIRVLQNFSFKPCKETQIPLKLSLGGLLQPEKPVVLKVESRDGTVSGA
Chain of CYP2B6 (P20813 whole entry): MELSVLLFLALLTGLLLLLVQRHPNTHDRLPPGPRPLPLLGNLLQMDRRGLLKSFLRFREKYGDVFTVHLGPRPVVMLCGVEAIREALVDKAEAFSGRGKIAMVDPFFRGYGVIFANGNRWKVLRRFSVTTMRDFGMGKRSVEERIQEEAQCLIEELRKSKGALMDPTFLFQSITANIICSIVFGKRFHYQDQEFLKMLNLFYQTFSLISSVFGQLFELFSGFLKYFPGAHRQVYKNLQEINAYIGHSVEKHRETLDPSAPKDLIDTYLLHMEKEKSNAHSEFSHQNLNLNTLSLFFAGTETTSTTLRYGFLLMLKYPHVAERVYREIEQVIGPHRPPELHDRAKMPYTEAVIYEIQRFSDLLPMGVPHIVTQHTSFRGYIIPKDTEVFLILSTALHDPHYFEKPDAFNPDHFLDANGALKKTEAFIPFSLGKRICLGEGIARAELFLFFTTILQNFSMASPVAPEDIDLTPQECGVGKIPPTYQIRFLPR

SMILES: C[C@@H]1CCO[C@H]2Cn3cc(C(=O)NCc4ccc(F)cc4F)c(=O)c(O)c3C(=O)N12 [DOLUTEGRAVIR]
- IC50 (Cytochrome P450 2C19): > 100 µM
- inhibition at 100 µM (CYP2B6): 20%
- IC50 [1]: > 100 µM
- IC50 (Cytochrome P450 1A2): > 100 µM
- Papp at 3 µM [2]: 26.5 ×10⁻⁶ cm/s
- IC50 [3]: > 100 µM
- CL [4]: 3.2 µL/min/g
- CL (Cytochrome P450 3A4): 3 µL/min/mg
- Drug metabolism (Liver microsome [5]): metabolite_not_detected
- Drug metabolism (Cytochrome P450 2C8): metabolite_not_detected
- Drug metabolism (Liver microsome [6]): metabolite_not_detected
- CLH [7]: 2.7 µL/min/g
- Drug metabolism [8]: metabolite_not_detected
